Measurements taken from ChEMBL document CHEMBL1201862, “PubChem BioAssay data set” (2004).
Calls of active or inactive are those of the source.

Columns and labels:
[1] = molecular target: T1, Short transient receptor potential channel 4 (Mus musculus, UniProt Q9QUQ5); assay: calcium entry via TRPC4 opening agents – cell-based, HEK293 TRPC4/mu-opioid, Fluo-4 calcium, dose response (AID 434937); format: functional
T1 sequence (Q9QUQ5 whole entry): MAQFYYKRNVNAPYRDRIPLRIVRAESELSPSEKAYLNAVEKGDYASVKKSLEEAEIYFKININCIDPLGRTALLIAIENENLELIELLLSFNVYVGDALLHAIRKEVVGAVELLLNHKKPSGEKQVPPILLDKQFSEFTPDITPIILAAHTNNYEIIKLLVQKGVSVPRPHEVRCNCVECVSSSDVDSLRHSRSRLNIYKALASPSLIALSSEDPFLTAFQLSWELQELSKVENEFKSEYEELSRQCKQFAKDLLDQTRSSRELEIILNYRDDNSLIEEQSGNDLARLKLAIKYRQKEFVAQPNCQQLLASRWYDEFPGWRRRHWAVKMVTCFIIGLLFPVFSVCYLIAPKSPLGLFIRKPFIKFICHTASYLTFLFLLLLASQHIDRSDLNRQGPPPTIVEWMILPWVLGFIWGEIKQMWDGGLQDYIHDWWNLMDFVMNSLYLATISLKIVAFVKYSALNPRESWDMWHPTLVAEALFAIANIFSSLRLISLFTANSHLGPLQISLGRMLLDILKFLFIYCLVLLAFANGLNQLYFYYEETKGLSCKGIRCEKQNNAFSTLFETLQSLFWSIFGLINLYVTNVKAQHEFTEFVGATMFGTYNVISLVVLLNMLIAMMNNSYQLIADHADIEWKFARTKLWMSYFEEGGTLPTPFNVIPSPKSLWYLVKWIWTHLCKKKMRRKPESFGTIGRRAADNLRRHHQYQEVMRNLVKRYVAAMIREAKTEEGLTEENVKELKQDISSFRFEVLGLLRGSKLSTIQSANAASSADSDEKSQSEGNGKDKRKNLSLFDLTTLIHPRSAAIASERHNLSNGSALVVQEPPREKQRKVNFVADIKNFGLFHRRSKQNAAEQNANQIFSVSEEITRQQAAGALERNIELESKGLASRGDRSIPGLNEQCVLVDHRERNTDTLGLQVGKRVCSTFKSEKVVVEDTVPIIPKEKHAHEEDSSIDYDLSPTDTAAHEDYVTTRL

[2] = system: HEK293; assay: inhibition of NOD1-driven NF-kB reporter – cell-based, luminescence, uHTS, primary screen (AID 1578); format: functional; conditions: Homo sapiens
[3] = system: HEK293; assay: cells; format: functional, cell-based; conditions: Homo sapiens
[4] = system: HEK293; assay: cells; format: functional, cell-based; conditions: Homo sapiens; remark: listed apart in the source
[5] = system: HEK293; assay: NOD2 signaling inhibitors in MDP-stimulated cells, cell-based, uHTS, luminescence (AID 2001); format: functional; conditions: Homo sapiens
[6] = molecular target: T2, Corticotropin-releasing factor receptor 2/Corticotropin-releasing factor-binding protein (Homo sapiens, UniProt P24387+Q13324); assay: activators of CRF receptor 2 with binding protein – uHTS hits, confirmation (AID 602473); format: functional; conditions: read-out: EC50_Mean
T2 sequence (Q13324 whole entry): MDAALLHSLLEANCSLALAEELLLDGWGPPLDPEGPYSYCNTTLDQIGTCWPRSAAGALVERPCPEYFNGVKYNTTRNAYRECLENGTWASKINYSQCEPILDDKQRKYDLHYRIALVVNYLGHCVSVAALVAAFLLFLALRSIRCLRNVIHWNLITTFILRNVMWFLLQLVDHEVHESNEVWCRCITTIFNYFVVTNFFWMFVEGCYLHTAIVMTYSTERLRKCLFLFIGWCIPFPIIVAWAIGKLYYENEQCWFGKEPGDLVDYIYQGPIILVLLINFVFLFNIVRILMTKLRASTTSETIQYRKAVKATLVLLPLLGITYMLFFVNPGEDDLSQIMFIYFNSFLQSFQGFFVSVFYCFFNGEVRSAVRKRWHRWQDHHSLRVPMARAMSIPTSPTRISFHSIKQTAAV
T2 sequence (P24387 whole entry): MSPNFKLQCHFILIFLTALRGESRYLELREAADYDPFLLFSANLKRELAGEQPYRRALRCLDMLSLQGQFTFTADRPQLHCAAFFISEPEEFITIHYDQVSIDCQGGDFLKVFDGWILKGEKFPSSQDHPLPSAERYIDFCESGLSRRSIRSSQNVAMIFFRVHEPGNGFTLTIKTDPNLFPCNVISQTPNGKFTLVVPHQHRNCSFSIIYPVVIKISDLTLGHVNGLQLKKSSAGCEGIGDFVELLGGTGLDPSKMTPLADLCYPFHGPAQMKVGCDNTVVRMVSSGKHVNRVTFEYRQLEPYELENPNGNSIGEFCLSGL

[7] = molecular target: T3, Caspase-3 (Homo sapiens, UniProt P42574); format: functional;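 also: Dose-response selectivity test against caspase-3 for candidate inhibitors of sentrin-specific proteases (SENPs)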
T3 sequence (P42574 whole entry): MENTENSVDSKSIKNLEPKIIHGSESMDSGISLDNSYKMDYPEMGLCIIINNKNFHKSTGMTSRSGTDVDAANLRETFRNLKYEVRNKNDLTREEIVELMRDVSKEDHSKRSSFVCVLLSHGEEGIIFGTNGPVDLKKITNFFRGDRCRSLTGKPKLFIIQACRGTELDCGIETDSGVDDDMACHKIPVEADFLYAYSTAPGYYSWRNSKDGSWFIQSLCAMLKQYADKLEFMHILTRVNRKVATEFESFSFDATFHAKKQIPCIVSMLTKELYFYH

[8] = molecular target: T4, Sentrin-specific protease 7 (Homo sapiens, UniProt Q9BQF6); format: functional;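 also: Luminescence-based dose-response confirmation of ultra-high-throughput screening hits, measuring inhibition of SENP7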
T4 sequence (Q9BQF6 whole entry): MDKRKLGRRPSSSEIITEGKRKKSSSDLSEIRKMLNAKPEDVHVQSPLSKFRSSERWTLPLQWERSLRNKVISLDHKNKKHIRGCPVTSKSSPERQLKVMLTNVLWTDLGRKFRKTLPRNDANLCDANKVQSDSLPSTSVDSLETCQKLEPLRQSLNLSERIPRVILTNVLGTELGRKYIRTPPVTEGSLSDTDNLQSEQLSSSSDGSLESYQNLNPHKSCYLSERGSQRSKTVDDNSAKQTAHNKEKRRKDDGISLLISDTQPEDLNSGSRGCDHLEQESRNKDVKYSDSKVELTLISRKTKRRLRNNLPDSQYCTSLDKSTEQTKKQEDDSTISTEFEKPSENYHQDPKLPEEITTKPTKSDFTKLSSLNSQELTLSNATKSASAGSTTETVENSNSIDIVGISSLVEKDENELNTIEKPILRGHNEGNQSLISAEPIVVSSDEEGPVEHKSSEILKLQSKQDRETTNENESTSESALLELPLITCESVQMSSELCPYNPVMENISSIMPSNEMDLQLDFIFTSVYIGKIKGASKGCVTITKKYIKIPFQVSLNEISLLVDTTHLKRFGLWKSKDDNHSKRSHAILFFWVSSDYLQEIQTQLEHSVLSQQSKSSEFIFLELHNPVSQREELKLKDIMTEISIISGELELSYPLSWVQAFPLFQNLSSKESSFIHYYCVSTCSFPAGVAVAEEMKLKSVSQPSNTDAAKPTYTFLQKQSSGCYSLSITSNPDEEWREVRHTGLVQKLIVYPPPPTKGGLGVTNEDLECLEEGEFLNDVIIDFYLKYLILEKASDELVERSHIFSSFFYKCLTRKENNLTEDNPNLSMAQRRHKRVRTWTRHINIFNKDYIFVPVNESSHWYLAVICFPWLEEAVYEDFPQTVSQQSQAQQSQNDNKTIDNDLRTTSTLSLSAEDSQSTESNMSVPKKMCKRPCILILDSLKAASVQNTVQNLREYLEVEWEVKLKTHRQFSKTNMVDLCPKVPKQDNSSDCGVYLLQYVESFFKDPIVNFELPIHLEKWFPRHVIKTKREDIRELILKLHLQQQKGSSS

[9] = molecular target: T5, Sentrin-specific protease 6 (Homo sapiens, UniProt Q9GZR1); format: functional;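 also: Luminescence-based dose-response confirmatory assay of SENP6 inhibition, following up an ultra-high-throughput screen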
T5 sequence (Q9GZR1 whole entry): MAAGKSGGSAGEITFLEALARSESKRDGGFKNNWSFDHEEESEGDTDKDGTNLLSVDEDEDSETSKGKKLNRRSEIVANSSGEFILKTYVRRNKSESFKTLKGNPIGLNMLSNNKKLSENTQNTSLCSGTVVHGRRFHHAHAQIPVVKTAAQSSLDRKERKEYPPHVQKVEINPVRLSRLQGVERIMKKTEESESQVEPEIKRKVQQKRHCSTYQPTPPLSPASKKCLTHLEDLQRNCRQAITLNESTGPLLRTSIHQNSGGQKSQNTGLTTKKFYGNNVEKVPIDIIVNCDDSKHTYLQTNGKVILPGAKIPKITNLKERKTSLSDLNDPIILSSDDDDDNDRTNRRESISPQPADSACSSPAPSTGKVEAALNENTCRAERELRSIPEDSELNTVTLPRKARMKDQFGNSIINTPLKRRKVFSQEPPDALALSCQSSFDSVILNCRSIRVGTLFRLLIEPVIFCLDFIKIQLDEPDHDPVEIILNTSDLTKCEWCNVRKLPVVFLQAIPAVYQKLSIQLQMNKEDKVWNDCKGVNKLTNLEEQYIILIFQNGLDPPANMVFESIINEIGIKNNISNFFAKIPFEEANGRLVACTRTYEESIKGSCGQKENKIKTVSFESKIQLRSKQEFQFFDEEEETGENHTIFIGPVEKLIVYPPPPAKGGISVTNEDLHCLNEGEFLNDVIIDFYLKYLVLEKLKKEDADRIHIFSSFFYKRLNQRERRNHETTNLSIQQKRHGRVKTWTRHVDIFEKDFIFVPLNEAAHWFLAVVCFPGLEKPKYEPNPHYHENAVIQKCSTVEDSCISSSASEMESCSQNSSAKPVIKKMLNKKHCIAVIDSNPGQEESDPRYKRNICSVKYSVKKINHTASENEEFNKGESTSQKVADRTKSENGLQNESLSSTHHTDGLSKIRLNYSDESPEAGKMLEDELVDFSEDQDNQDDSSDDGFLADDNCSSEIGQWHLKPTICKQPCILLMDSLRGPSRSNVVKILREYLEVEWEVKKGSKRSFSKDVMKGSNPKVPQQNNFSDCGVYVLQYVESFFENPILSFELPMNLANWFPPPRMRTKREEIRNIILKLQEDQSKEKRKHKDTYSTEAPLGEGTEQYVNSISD

[10] = molecular target: T6, Sentrin-specific protease 8 (Homo sapiens, UniProt Q96LD8); format: functional;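 also: luminescence read-out of SENP8 inhibition, dose-response confirmation following an ultra-high-throughput screen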
T6 sequence (Q96LD8 whole entry): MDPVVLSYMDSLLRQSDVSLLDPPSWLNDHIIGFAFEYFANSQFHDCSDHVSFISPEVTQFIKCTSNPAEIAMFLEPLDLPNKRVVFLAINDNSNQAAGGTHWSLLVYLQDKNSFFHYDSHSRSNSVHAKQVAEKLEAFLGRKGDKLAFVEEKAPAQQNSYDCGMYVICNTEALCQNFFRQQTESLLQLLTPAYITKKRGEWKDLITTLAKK

[11] = system: Streptococcus sp. 'group A'; assay: Streptococcus pyogenes SK(-)GAS viability under kanamycin – luminescence, BacTiterGlo, confirmation, counter-screen for streptokinase expression inhibitor project, dose response (AID 1900); format: functional, organism-based
[12] = molecular target: T7, Streptokinase A (Streptococcus pyogenes serotype M1, UniProt P10520); assay: viability-normalized secreted streptokinase activity reduction – plasminogen activation absorbance, OD405, dose response (AID 1914); format: functional, Streptococcus pyogenes M1 GAS;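 also: secreted streptokinase activity via plasminogen activation per viability signal from cell pellet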
T7 sequence (P10520 whole entry): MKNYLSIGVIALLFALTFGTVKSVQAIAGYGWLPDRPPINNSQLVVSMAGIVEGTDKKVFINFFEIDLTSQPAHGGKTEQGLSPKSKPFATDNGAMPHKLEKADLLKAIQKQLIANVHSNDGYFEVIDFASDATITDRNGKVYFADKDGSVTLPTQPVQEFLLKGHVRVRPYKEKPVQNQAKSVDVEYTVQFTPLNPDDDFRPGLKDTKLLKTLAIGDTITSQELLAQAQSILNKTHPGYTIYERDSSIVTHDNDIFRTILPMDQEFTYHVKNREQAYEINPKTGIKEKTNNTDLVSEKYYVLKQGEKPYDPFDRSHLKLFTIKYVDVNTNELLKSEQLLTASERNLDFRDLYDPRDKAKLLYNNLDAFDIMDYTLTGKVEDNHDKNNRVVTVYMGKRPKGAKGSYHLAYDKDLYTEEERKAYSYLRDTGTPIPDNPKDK

[13] = system: Streptococcus; assay: GAS UMAA2166 growth inhibition – luminescence, BacTiterGlo, counter-screen for streptokinase expression inhibitor project, dose response (AID 1915); format: functional, organism-based;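 also: potency for reduction of bacterial viability or growth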

## CCCCC(c1nnnn1CC1CCCO1)N1CCN(c2nc3ccccc3s2)CC1 (stereo not drawn)
[1]
  EC50: 1.06 µM (active)

## Cc1ccc(O)c(C(=O)c2cc(C#N)c3nc4ccccc4n3c2)c1
[2]
  EC50: 3.28 µM (active)
[3]
  IC50: 14.8 µM (active)
[4]
  IC50: > 20 µM (inactive)
[5]
  IC50: 10.2 µM (inactive)
[6]
  EC50: 17.5 µM (active)

## CC(Sc1n[nH]c2c3ccccc3nc-2n1)C(=O)NC1CCCCC1 (stereo not drawn)
[2]
  EC50: 4.88 µM (active)
[3]
  IC50: 11.1 µM (active)
[4]
  IC50: > 20 µM (inactive)
[5]
  IC50: 9.89 µM (active)

## Cc1ccc(-c2nc3sc4c(c3c(=O)n2N)CCCC4)cc1
[7]
  IC50: 12.7 µM (active)
[8]
  IC50: 5.25 µM (active)
[9]
  IC50: 18.2 µM (active)
[10]
  IC50: > 100 µM (inactive)

## CCN1CCN(c2c(S(=O)(=O)c3ccc(C)c(C)c3)cnc3ccc(F)cc23)CC1
[1]
  EC50: 0.944 µM (active)

## O=C(CSc1ncnc2ccccc12)c1cccs1
[7]
  IC50: 37.4 µM (active)
[8]
  IC50: 4.7 µM (active)
[9]
  IC50: 23.9 µM (active)
[10]
  IC50: 17.5 µM (active)

## S=C(Nc1ccc(Oc2ccccc2)cc1)N1CCN(c2ccccn2)CC1
[2]
  EC50: 9.44 µM (active)
[3]
  IC50: 5.27 µM (active)
[4]
  IC50: > 20 µM (inactive)
[5]
  IC50: 6.67 µM (active)

## CCOC(=O)C1=NN(C(=O)c2ccc(C)cc2)C(O)(c2ccc(Cl)cc2)C1 (stereo not drawn)
[11]
  EC50: 2.15 µM (active)
[12]
  EC50: > 150 µM (not active)
[13]
  EC50: 8.19 µM (active)
[1]
  EC50: 9.44 µM (active)

## CCOC(=O)/C=C/c1ccc2oc3ccccc3c(=O)c2c1
[7]
  IC50: 12.2 µM (active)
[8]
  IC50: 3.46 µM (active)
[9]
  IC50: 16.6 µM (active)
[10]
  IC50: 42.7 µM (active)

## CN(CCc1ccccn1)C(=S)Nc1cccc(S(=O)(=O)N(C)C)c1
[1]
  EC50: 5.31 µM (active)

## CN(C)C(CNC(=O)CCc1c[nH]c2ccccc12)c1ccccc1 (stereo not drawn)
[1]
  EC50: 0.0747 µM (active)
